Measured values: PMC12736451, “Autophagy-Targeting Stapled Peptide Utilizes Macropinocytosis for Cell Entry to Potentiate Anti-Proliferative Autosis in Small-Cell Lung Cancer” (Pharmaceutics, 2025)
Positions of bridges follow the written chain, without caps; N, C: chain ends. Non-standard residues stand in square brackets, D forms with d. Residues, ends and D or L forms follow the SMILES beside them. *: point of attachment. R8 = C=CCCCCCC[C@@](C)(N)C(=O)O; S5 = C=CCCC[C@](C)(N)C(=O)O; Cbz = O=C(OCc1ccccc1)*; CH2F = FC*

Columns and labels:
SHP-77 cells [1] = conditions: for rescue of Tat-SP4-induced cell death by uptake pathway inhibitor / rescue of Tat-SP4-induced cell death by cell death program inhibitor: n = 3; for rescue of Tat-SP4-induced cell death by cell death program inhibitor: 10 μM Tat-SP4, 24 h, trypan blue exclusion
Method: (§1) Cell viability was measured by a trypan blue exclusion assay following the standard protocol provided by the manufacturer. SHP-77 cells and H146 cells were plated into 96-well plates at a density of 2 × 10^4 cells/well. Upon cell attachment, cells were treated with the graded concentrations of Tat-SP4 for 24 h. The IC50 value was calculated from the curve fitted to concentration–response data sets. All experiments were repeated in triplicate, and the mean was calculated. For the 5-day growth curve, cells were seeded into a 24-well plate at 2.5 × 10^4 cells/well for SHP-77 and H146 cells. Cells were treated with 10 μM Tat-SP4. Cells were allowed to grow for up to 5 days post-treatment, and the viable cell number was checked every 24 hours with the trypan blue exclusion assay. For cell death rescue assays, SHP-77 cells were first plated overnight in 96-well plates. Tat-SP4 was added to the cells, together with inhibitors for apoptosis, ferroptosis, necroptosis, or autosis. After 24 h treatment, the cell viability was measured by the trypan blue exclusion assay.
Figure 3 Cell death induced by Tat-SP4 is rescued by an inhibitor of autosis but not by inhibitors for other cell death programs. (A) Flow cytometry analysis using Annexin V FITC-PI staining was conducted on SHP-77 cells after indicated hours of treatment with the Tat-SP4. […] (B) In the absence or presence of Z-VAD-FMK, SHP-77 cells treated with Tat-SP4 or cisplatin for 24 h. (C) SHP-77 cells were pretreated with ferroptosis inhibitor, ferrostatin-1, followed by 10 μM Tat-SP4 or 5 μM Erastin treatment for 24 h. […] (D) SHP-77 cells were treated with Tat-SP4 at 10 μM for 24 h, either in the presence or absence of necrostatin-1, respectively. […] (E) SHP-77 cells were pretreated with digoxin for 2 h, followed by the treatment of Tat-SP4 for 12 h. Cell viability was measured by trypan blue exclusion assay. Data are presented as mean ± SEM (n = 3). ** p < 0.01, **** p < 0.0001; unpaired t-test. TEXT PRINTED IN THE PICTURE: (A) Tat-SP4: Q1-UL 15.9% (10μM; 3h); Dead 30.5% (10μM; 3h); Live 48.8% (10μM; 3h); Apoptotic 4.8% (10μM; 3h); Q1-UL 51.4% (10μM; 6h); Dead 4.7% (10μM; 6h); Live 43.6% (10μM; 6h); Apoptotic 0.2% (10μM; 6h) DOUBTS OF THE COPYIST ABOUT THIS PICTURE: Tat-SP4 3h, Q1-UL 15.9%: very small print, 5 and 9 uncertain / Tat-SP4 3h, Dead 30.5%: very small print, 3 and 5 uncertain / Tat-SP4 3h, Live 48.8%: very small print, partly overlaid by the plot edge, both 8s uncertain / Tat-SP4 3h, Apoptotic 4.8%: very small print, 8 uncertain / Tat-SP4 6h, Q1-UL 51.4%: very small print, 5 uncertain / Tat-SP4 6h, Dead 4.7%: very small print, digits uncertain / Tat-SP4 6h, Live 43.6%: very small print, 3 and 6 uncertain / Tat-SP4 6h, Apoptotic 0.2%: very small print, digits uncertain
Figure 5 The cellular uptake process of Tat-SP4 is energy- and macropinocytosis-dependent. (A) Representative flow cytometry plot of SHP-77 cells stained with Rhod-SP4 at 10 μM at 4 °C, room temperature, and 37 °C for an hour, respectively. The fluorescence intensity of Rhod-SP4 increases with increasing temperature. (B) Mean fluorescence intensity of Rhod-SP4 from (A). The bar graph represents a single experiment without replicates. (C) Representative flow cytometry plot of SHP-77 cells stained with Rhod-SP4 at 10 μM at 37 °C for an hour, in the presence or absence of various inhibitors. AM, Amiloride; MβCD, Methyl-beta cyclodextrin. Cells were pretreated with different inhibitors for 30 min, followed by staining with Rhod-SP4 at 10 μM. (D) Mean fluorescence intensity of Rhod-SP4 from (C). The bar graph represents a single experiment without replicates. (E–G) Assess the effect of different inhibitors of cell-penetrating peptides uptake pathways on Tat-SP4-induced cell death. […] Data are presented as mean ± SEM (n = 3). * p < 0.05; unpaired t-test.

in vitro = conditions: human, Beas-2B cells (normal bronchial epithelial)
Method: as §1
(§2) (A) Trypan blue exclusion assay to assess the cytotoxicity IC50 of Tat-SP4 in SHP-77 and H146 cell lines. Cells were treated with Tat-SP4 at a series of concentrations for 24 h. The number of viable cells was determined manually using a hemocytometer and the trypan blue dye exclusion method.

H146 cells = test: Trypan blue exclusion cell viability assay, 24 h; assay type: cell-based; conditions: 24 h treatment, triplicate, mean, read-out: cytotoxicity IC50
Method: as §1, §2

SHP-77 cells [2] = test: Trypan blue exclusion cell viability assay, 24 h; assay type: cell-based; conditions: 24 h treatment, triplicate, mean, read-out: cytotoxicity IC50
Method: as §1, §2

SHP-77 xenograft = SHP-77 xenograft model; assay type: in vivo; conditions: male nude mice, 40 mg/kg/day i.p., heart, liver, spleen, lung, kidney, stomach
Method: Animal experiments were carried out according to the guidelines of the Centralized Animal Facilities of the Hong Kong Polytechnic University. Male nude mice, 5–6 weeks in age, were purchased from the Centralized Animal Facilities of the Hong Kong Polytechnic University. Exponentially growing SHP-77 cells were harvested and resuspended in PBS with a concentration of 1 ×10^8 cells per ml. Mixed cell suspensions with Matrigel (Corning) in a 1:1 volume ratio with 5 × 10^5 SHP-77 cells were injected subcutaneously into the right-lower back of the mice. The tumor volume was calculated by the equation of Length × Width × Width/2. Mice were divided randomly into two groups (8 animals/group) when the tumor volume reached 50–60 mm^3. Tat-SP4 was administered intraperitoneally at 40 mg/kg every day, while PBS was administered to mice in the control group. The tumor volume was measured every other day. Treatments were continued until the tumor volume in the mice in the control group reached the maximum volume allowable according to the Centralized Animal Facilities of the Hong Kong Polytechnic University. At the end of the experiment, mice were sacrificed, and both tumors and vital organs were harvested for analysis. Tumor weights were measured after resection. […]
Figure 7 The anti-proliferative efficacy of Tat-SP4 in the SHP-77 xenograft model. […] The tumor volume was recorded every other day. […]

SHP-77 cells [3] = test: Seahorse XF Mito Stress Test, oxygen consumption rate; assay type: cell-based; conditions: digoxin pretreatment followed by Tat-SP4
Method: Oxygen consumption in intact cells was assessed using an XFe24 Extracellular Flux Analyzer (Agilent, Santa Clara, CA, USA) following the manufacturer’s standard protocol. Briefly, one day prior to the experiment, an XF24 cell culture microplate was coated with 100 µg/mL poly-lysine and incubated in a CO2 incubator at 37 °C. On the same day, 1 mL of XF calibrant was added to each well of the utility plate to hydrate the sensor, and the XF24 sensor cartridge was incubated overnight in a non-CO2 incubator at 37 °C. On the day of the experiment, the coated XF24 cell culture microplate was washed with PBS and then allowed to air dry. Then, SHP-77 cells were seeded at a density of 1.5 × 10^5 cells per well in the coated XF24 cell culture microplate with the XF assay medium containing 1 mM sodium pyruvate, 2 mM glutamine, and 10 mM glucose and incubated for 1 h in a non-CO2 incubator at 37 °C.
Figure 4 Tat-SP4 impairs mitochondrial function and OXPHOS activity. […] Cells were stained with TMRM for 30 min and analyzed using flow cytometry. […] Fluorescence intensity is directly proportional to the amount of ROS in the cell. (C) OCR was measured using the Mito Stress Test with Agilent Seahorse Analyzer. […] (D) Quantification of basal maximum respiration changes respiration after Tat-SP4 treatment and in (A). **** p < 0.0001. […]

SHP-77 cells [4] = test: Intracellular Ca2+ imaging with genetically encoded indicators; assay type: cell-based; conditions: 10 µM digoxin pretreatment 1 h, then 10 µM Tat-SP4
Method: Genetically encoded Ca^2+ indicators used in this study include mito-GCaMP5G, cyto-RCaMP1h, and G-CEPIA1er. SHP-77 cells were plated in 6-well plates to allow transfection. Cells were transfected with either mito-GCaMP5G, cyto-RCaMP1h, or G-CEPIA1er cDNA using Lipofectamine 2000 and incubated for 36 h. After transfection, cells were collected and evenly distributed into 24-well plates in HBSS buffer (Gibco) for imaging. Time-lapse fluorescence imaging was performed using an Olympus inverted epifluorescence microscope equipped with a ×20 objective and appropriate excitation/emission filter sets. Images were acquired every 3 s.
To monitor subcellular Ca^2+ dynamics, SHP-77 cells expressing mito-GCaMP5G, cyto-RCaMP1h, or G-CEPIA1er were imaged to capture Ca^2+ fluctuations in the mitochondria, cytosol, and endoplasmic reticulum, respectively. Tat-SP4 or other agonists were applied 60 s after the start of imaging. Fluorescence signals were quantified as ΔF/F0, where ΔF represents the change in fluorescence at each time point and F0 denotes the baseline fluorescence.
(A,B) SHP-77 cells were transfected with cyto-RCaMP1h (A) or mito-GCaAMP5G (B) for 36 h. […] SHP-77 cells were pretreated with 10µM digoxin for 1 h, followed by the stimulation of Tat-SP4.

For Methyl-beta-cyclodextrin [MβCD], the “rescue of Tat-SP4-induced cell death by uptake pathway inhibitor” value (“rescue … by uptake pathway inhibitor” for short) (SHP-77 cells [1]) was “showed no such effect”.
Compound CC(=O)N[C@@H](Cc1ccc(O)cc1)C(=O)NCC(=O)N[C@@H](CCCNC(=N)N)C(=O)N[C@@H](CCCCN)C(=O)N[C@@H](CCCCN)C(=O)N[C@@H](CCCNC(=N)N)C(=O)N[C@@H](CCCNC(=N)N)C(=O)N[C@@H](CCC(N)=O)C(=O)N[C@@H](CCCNC(=N)N)C(=O)N[C@@H](CCCNC(=N)N)C(=O)N[C@@H](CCCNC(=N)N)C(=O)N[C@@H](CCCNC(=N)N)C(=O)N[C@@H](CC(C)C)C(=O)N[C@@H](CO)C(=O)N[C@@H](CCC(=O)O)C(=O)N[C@@H](CC(C)C)C(=O)N[C@]1(C)CCCCCCC=CCCC[C@@](C)(C(=O)N[C@@H](C)C(N)=O)NC(=O)[C@H](CCCNC(=N)N)NC(=O)[C@H](CCC(N)=O)NC(=O)[C@H](CCCCN)NC(=O)[C@H](CCC(=O)O)NC(=O)[C@H](CCCNC(=N)N)NC(=O)[C@H](CC(=O)O)NC1=O [Tat-SP4] (Ac-YGRKKRRQRRRRLSEL[R8]DREKQR[S5]A-NH2; staple 17-24) has an IC50 at 24 h (in vitro) of 94.9 µM, an IC50 (H146 cells) of 17.6 µM and an IC50 (SHP-77 cells [2]) of 7.66 µM. For the same compound, the “body weight and gross morphology of major organs” value (SHP-77 xenograft) was “no abnormal changes”.
With C[C@H]1O[C@@H](O[C@H]2[C@@H](O)C[C@H](O[C@H]3[C@@H](O)C[C@H](O[C@H]4CC[C@@]5(C)[C@H](CC[C@@H]6[C@@H]5C[C@@H](O)[C@]5(C)[C@@H](C7=CC(=O)OC7)CC[C@]65O)C4)O[C@@H]3C)O[C@@H]2C)C[C@H](O)[C@@H]1O [digoxin, Digoxin] the “basal and maximum OCR levels after Tat-SP4 with digoxin pretreatment” value (SHP-77 cells [3]) was “comparable to those for untreated controls” and the “effect on Ca2+ influx triggered by Tat-SP4 (cyto-RCaMP and mito-GCaMP5G)” value (SHP-77 cells [4]) was “completely abolished”.
In the case of COC(=O)C[C@H](NC(=O)[C@H](C)NC(=O)[C@@H](NC(=O)OCc1ccccc1)C(C)C)C(=O)CF [Z-VAD-FMK] (Cbz-Val-Ala-Asp(OMe)-CH2F), the “rescue of Tat-SP4-induced cell death by cell death program inhibitor” value (“rescue … by cell death program inhibitor” for short) (SHP-77 cells [1]) is reported as “had no effect” and the “rescue of cisplatin-induced apoptotic cell death” value (SHP-77 cells [1]; cisplatin 24 h) is reported as “rescued”.
For CCOC(=O)c1ccc(NC2CCCCC2)c(N)c1 [Ferrostatin-1], the “rescue … by cell death program inhibitor” value (SHP-77 cells [1]) was “did not rescue”.
For Heparin, the “rescue … by uptake pathway inhibitor” value (SHP-77 cells [1]) was “readily rescued cell death”.
In the case of CN1C(=O)C(Cc2c[nH]c3ccccc23)NC1=S (stereo not shown) [Necrostatin-1], the “rescue … by cell death program inhibitor” value (SHP-77 cells [1]) is reported as “did not rescue”.
In the case of N=C(N)NC(=O)c1nc(Cl)c(N)nc1N [amiloride, Amiloride], the “rescue … by uptake pathway inhibitor” value (SHP-77 cells [1]) is reported as “readily rescued cell death”.
